Counter-ions that a name gives are not always drawn. Like-named read-outs stand apart in the source and are kept apart here.
How the values were obtained:
A549 = assay: Cell-based assay, anti-proliferative activity (Cell Counting Kit-8, 72 hours); conditions: Homo sapiens, read-out: IC50 (μM) A549
Description: 100 micro-L of cell suspension was seeded onto 96-well microtiter plate (ViewPlate-96FTC, PerkinElmer). […] Cellular growth was determined using Cell Counting Kit-8 (DOJINDO) at 72 hours after the exposure of the candidate inhibitors. […] Accurate IC50 values were calculated as described previously.

CCD-18Co = assay: as above; conditions: Homo sapiens, read-out: IC50 (μM) CCD-18Co
Description: (§1) Active candidate inhibitors against SUV39H2 were evaluated for their target-specific cytotoxicity using A549, HCT-116, HFL1, CCD-18Co and PC14. 100 micro-L of cell suspension was seeded onto 96-well microtiter plate (ViewPlate-96FTC, PerkinElmer). The initial cell concentration of A549, HCT-116, HFL1, CCD-18Co and PC14 were 3,000 cells/well, 2,000 cells/well and 2,500 cells/well, respectively. Cellular growth was determined using Cell Counting Kit-8 (DOJINDO) at 72 hours after the exposure of the candidate inhibitors. IC50 was used as an indicator of the anti-proliferative activity of the inhibitors, and calculated by serial dilution method (0, 1.5625, 3.125, 6.25, 12.5, 25, 50, and 100 micro-M). Accurate IC50 values were calculated as described previously.

HCT-116 = assay: as above; conditions: Homo sapiens, read-out: IC50 (μM) HCT-116
Description: as §1

HFL1 = assay: as above; conditions: Homo sapiens, read-out: IC50 (μM) HFL1
Description: as §1

SUV39H2 = SUV39H2 (Homo sapiens (Human), UniProt Q9H5I1); conditions: read-out: IC50 (μM) Suv 39H2 assay
[1] = A549 cells, Cell Counting Kit-8, 72 hours
[2] = CCD-18Co cells, Cell Counting Kit-8, 72 hours
[3] = HCT-116 cells, Cell Counting Kit-8, 72 hours
[4] = HFL1 cells, Cell Counting Kit-8, 72 hours

SUV39H2, sequence (Q9H5I1 whole entry): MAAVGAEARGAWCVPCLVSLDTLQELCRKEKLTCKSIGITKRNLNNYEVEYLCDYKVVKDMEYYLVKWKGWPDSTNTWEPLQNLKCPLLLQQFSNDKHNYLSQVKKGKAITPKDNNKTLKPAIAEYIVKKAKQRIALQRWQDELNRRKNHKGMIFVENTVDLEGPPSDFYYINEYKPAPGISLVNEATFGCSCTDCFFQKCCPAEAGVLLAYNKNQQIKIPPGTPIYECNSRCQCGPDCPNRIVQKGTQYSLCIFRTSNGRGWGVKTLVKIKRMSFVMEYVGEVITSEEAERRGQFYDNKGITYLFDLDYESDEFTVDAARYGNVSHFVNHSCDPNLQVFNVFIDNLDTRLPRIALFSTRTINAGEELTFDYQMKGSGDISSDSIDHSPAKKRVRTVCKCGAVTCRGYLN

Compound: COc1ccc(-c2cn3ccc(N4CCCC4)cc3n2)cc1C#N [Example 21, 2-methoxy-5-(7-(pyrrolidin-1-yl)imidazo[1,2-a]pyridin-2-yl)benzonitrile hydrobromide]
- IC50 (A549; [1]): 4.2 µM
- IC50 (CCD-18Co; [2]): 5.5 µM
- IC50 (HCT-116; [3]): 3.1 µM
- IC50 (HFL1; [4]): 2.5 µM
- IC50 (SUV39H2; enzyme assay): 0.0733 µM

Compound: COc1cc(OC)c(-c2cn3ccc(N4CCCCC4)cc3n2)cc1Cl [Example 25, 2-(5-chloro-2,4-dimethoxyphenyl)-7-(piperidin-1-yl)imidazo)[1,2-a]pyridine hydrobromide]
- IC50 (A549; [1]): 3 µM
- IC50 (CCD-18Co; [2]): 2.3 µM
- IC50 (HCT-116; [3]): 2 µM
- IC50 (HFL1; [4]): 1.4 µM
- IC50 (SUV39H2; enzyme assay): 0.0122 µM

Compound: COc1cc(OC)c(-c2cn3ccc(N4CCC(NC(=O)OC(C)(C)C)C4)nc3n2)cc1Cl (stereo not shown) [Example 26, tert-butyl (1-(2-(5-chloro-2,4-dimethoxyphenyl)imidazo[1,2-a]pyrimidin-7-yl)pyrrolidin-3-yl)carbamate]
- IC50 (A549; [1]): 7.9 µM
- IC50 (CCD-18Co; [2]): 7.9 µM
- IC50 (HCT-116; [3]): 13 µM
- IC50 (HFL1; [4]): 6.7 µM
- IC50 (SUV39H2; enzyme assay): 0.017 µM

Compound: COc1cc(OC)c(-c2cn3ccc(-c4cncc(N)c4)cc3n2)cc1Cl [Example 27, 5-[2-(5-chloro-2,4-dimethoxyphenyl)imidazo[1,2-a]pyridin-7-yl]pyridin-3-amine]
- IC50 (A549; [1]): 1.9 µM
- IC50 (CCD-18Co; [2]): 3.3 µM
- IC50 (HCT-116; [3]): 3.3 µM
- IC50 (HFL1; [4]): 1.8 µM
- IC50 (SUV39H2; enzyme assay): 0.0396 µM

Compound: COc1cc(OC)c(-c2cn3ccc(N4CCN(CCNC(=O)OC(C)(C)C)CC4)cc3n2)cc1Cl [Example 28, tert-butyl (2-(4-(2-(5-chloro-2,4-dimethoxyphenyl)imidazo[1,2-a]pyridin-7-yl)piperazin-1-yl)ethyl)carbamate dihydrochloride]
- IC50 (A549; [1]): 3.6 µM
- IC50 (CCD-18Co; [2]): 4 µM
- IC50 (HCT-116; [3]): 2.8 µM
- IC50 (HFL1; [4]): 3.4 µM
- IC50 (SUV39H2; enzyme assay): 0.021 µM

Compound: COc1cc(OC)c(-c2cn3ccc(N4CCN(CCN)CC4)cc3n2)cc1Cl [Example 29, 2-(4-(2-(5-chloro-2,4-dimethoxyphenyl)imidazo[1,2-a]pyridin-7-yl)piperazin-1-yl)ethanamine trihydrochloride]
- IC50 (A549; A549, 72 h): 7 µM
- IC50 (CCD-18Co; CCD-18Co, 72 h): 12 µM
- IC50 (HCT-116; HCT-116, 72 h): 9.7 µM
- IC50 (HFL1; HFL1, 72 h): 4.5 µM
- IC50 (SUV39H2): 0.012 µM

Compound: COc1cc(OC)c(-c2cn3ccc(N4CCC(CN)CC4)nc3n2)cc1Cl [Example 31, (1-(2-(5-chloro-2,4-dimethoxyphenyl)imidazo[1,2-a]pyrimidin-7-yl)piperidin-4-yl)methanamine hydrochloride]
- IC50 (A549; A549, 72 h): 18 µM
- IC50 (CCD-18Co; CCD-18Co, 72 h): 23 µM
- IC50 (HCT-116; HCT-116, 72 h): 22 µM
- IC50 (HFL1; HFL1, 72 h): 9.3 µM
- IC50 (SUV39H2): 0.0489 µM

Compound: COc1cc(OC)c(-c2cn3ccc(N4CCC(CNC(=O)OC(C)(C)C)CC4)nc3n2)cc1Cl [Example 32, tert-butyl ((1-(2-(5-chloro-2,4-dimethoxyphenyl)imidazo[1,2-a]pyrimidin-7-yl)piperidin-4-yl)methyl)carbamate]
- IC50 (A549; [1]): 6.7 µM
- IC50 (CCD-18Co; [2]): 6.3 µM
- IC50 (HCT-116; [3]): 8.4 µM
- IC50 (HFL1; [4]): 4.6 µM
- IC50 (SUV39H2; enzyme assay): 0.037 µM

Compound: COc1cc(OC)c(-c2cn3ccc(N4CCC(N)C4)nc3n2)cc1Cl (stereo not shown) [Example 34, 1-(2-(5-chloro-2,4-dimethoxyphenyl)imidazo[1,2-a]pyrimidin-7-yl)pyrrolidin-3-amine hydrochloride]
- IC50 (A549; A549, 72 h): 12 µM
- IC50 (CCD-18Co; CCD-18Co, 72 h): 11 µM
- IC50 (HCT-116; HCT-116, 72 h): 9.6 µM
- IC50 (HFL1; HFL1, 72 h): 4.4 µM
- IC50 (SUV39H2): 0.0273 µM

Compound: COc1cc(OC)c(-c2cn3ccc(NCCCN)cc3n2)cc1Cl [Example 35, N^1-(2-(5-chloro-2,4-dimethoxyphenyl)imidazo[1,2-a]pyridin-7-yl)propane-1,3-diamine]
- IC50 (A549; [1]): 14 µM
- IC50 (CCD-18Co; [2]): 14 µM
- IC50 (HCT-116; [3]): 9.8 µM
- IC50 (HFL1; [4]): 7 µM
- IC50 (SUV39H2; enzyme assay): 0.0124 µM

Compound: COc1cc(OC)c(-c2cn3ccc(N4CCC(NC(=O)OC(C)(C)C)CC4)nc3n2)cc1Cl [Example 36, tert-butyl (1-(2-(5-chloro-2,4-dimethoxyphenyl)imidazo[1,2-a]pyrimidin-7-yl)piperidin-4-yl)carbamate]
- IC50 (A549; [1]): 5.6 µM
- IC50 (CCD-18Co; [2]): 3.8 µM
- IC50 (HCT-116; [3]): 4.1 µM
- IC50 (HFL1; [4]): 3.2 µM
- IC50 (SUV39H2; enzyme assay): 0.0552 µM

Source: US10508109B2 (priority 2015, dated 2019)
